ChEMBL document CHEMBL1151888, “Synthesis, initial SAR and biological evaluation of 1,6-dihydroimidazo[4,5-d]pyrrolo[2,3-b]pyridin-4-amine derived inhibitors of IkappaB kinase” (Bioorg Med Chem Lett, 2009)
In brackets after ≈: the same amount, converted by molar mass. Activity calls are given as the source filed them. No cut-off for these calls is given here.

Experiments:
[1] = tested on: PBMC; experiment: Antiinflammatory activity in human PBMC assessed as inhibition of LPS-induced TNFalpha production treated 30 mins before LPS challenge measured after 6 hrs of LPS induction by ELISA; type: functional, cell-based
[2] = Inhibition of IKK1-catalyzed phosphorylation of GST-tagged IkappaBalpha fusion protein by fluorescence polarization assay
[3] = target: Inhibitor of nuclear factor kappa-B kinase subunit alpha (Homo sapiens) (UniProt O15111); experiment: Inhibition of IKK2-catalyzed phosphorylation of GST-tagged IkappaBalpha fusion protein by fluorescence polarization assay
Inhibitor of nuclear factor kappa-B kinase subunit alpha (Homo sapiens), sequence (O15111 whole entry, looked up, the tested form may be a part): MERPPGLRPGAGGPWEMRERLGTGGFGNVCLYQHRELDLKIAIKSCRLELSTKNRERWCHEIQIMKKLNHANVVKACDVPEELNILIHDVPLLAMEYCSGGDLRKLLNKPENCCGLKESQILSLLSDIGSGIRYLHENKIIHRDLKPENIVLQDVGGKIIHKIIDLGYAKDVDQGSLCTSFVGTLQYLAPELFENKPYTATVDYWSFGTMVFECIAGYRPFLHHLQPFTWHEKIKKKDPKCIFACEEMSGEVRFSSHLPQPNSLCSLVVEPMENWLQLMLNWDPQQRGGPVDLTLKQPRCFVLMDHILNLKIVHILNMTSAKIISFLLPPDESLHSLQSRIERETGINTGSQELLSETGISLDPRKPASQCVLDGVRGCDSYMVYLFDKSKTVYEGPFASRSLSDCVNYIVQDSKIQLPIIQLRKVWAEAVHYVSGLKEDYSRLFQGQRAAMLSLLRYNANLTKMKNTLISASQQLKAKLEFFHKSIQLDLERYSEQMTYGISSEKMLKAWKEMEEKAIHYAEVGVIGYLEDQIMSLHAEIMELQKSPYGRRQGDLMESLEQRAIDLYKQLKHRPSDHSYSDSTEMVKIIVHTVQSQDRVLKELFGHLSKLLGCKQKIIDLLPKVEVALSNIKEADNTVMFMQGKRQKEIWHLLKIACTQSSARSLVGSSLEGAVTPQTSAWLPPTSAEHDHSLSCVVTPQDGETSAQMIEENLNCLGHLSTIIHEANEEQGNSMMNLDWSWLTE

[4] = Mean residence time in rat at 10 mg/kg, po; type: ADME, organism-based; parameters: dose 10 mg/kg, route oral; details: in vivo
[5] = tested on: Serum; experiment: Drug level in Lewis rat serum at 3 mg/kg, po; type: ADME, organism-based; parameters: dose 3 mg/kg, route oral; details: in vivo, read-out: Drug uptake
[6] = tested on: Blood; experiment: Antiinflammatory activity in Lewis rat whole blood assessed as inhibition of LPS-induced TNFalpha production treated 45 mins before LPS challenge measured after 4 hrs by ELISA; type: functional, tissue-based
[7] = Half life in rat at 10 mg/kg, po; type: ADME, organism-based; parameters: dose 10 mg/kg, route oral; details: in vivo
[8] = Total AUC in rat at 10 mg/kg, po; type: ADME, organism-based; parameters: time AUCmax, dose 10 mg/kg, route oral; details: in vivo
[9] = tested on: Rattus norvegicus; experiment: Antiinflammatory activity in po dosed Lewis rat assessed as inhibition of LPS-induced TNFalpha production administered 4 hrs before LPS challenge measured after 90 mins by ELISA; type: functional, organism-based
[10] = Clearance in rat at 2 mg/kg, iv; type: ADME, organism-based; parameters: dose 2 mg/kg, route intravenous; details: in vivo
[11] = Mean residence time in rat at 2 mg/kg, iv; type: ADME, organism-based; parameters: dose 2 mg/kg, route intravenous; details: in vivo
[12] = Oral bioavailability in rat at 10 mg/kg; type: ADME, organism-based; details: in vivo
[13] = tested on: Blood; experiment: Antiinflammatory activity in Lewis rat whole blood assessed as inhibition of LPS-induced TNFalpha production at 17 uM treated 45 mins before LPS challenge measured after 4 hrs by ELISA; type: functional, tissue-based
[14] = Total AUC in rat at 2 mg/kg, iv; type: ADME, organism-based; parameters: time AUCmax, dose 2 mg/kg, route intravenous; details: in vivo
[15] = Aqueous solubility at pH 1.0; type: physicochemical; details: aqueous solution
[16] = Half life in rat at 2 mg/kg, iv; type: ADME, organism-based; parameters: dose 2 mg/kg, route intravenous; details: in vivo
[17] = tested on: Rattus norvegicus; experiment: Antiinflammatory activity in Lewis rat assessed as inhibition of LPS-induced TNFalpha production at 30 mg/kg, po administered 4 hrs before LPS challenge measured after 90 mins by ELISA; type: functional; parameters: scale not given: the % may be the effect or the level left
[18] = tested on: Serum; experiment: Drug level in Lewis rat serum at 30 mg/kg, po; type: ADME, organism-based; parameters: dose 30 mg/kg, route oral; details: in vivo, read-out: Drug uptake
[19] = Volume of distribution at steady state in rat at 2 mg/kg, iv; type: ADME, organism-based; parameters: dose 2 mg/kg, route intravenous; details: in vivo, read-out: Vdss
[20] = tested on: Serum; experiment: Drug level in Lewis rat serum at 10 mg/kg, po; type: ADME, organism-based; parameters: dose 10 mg/kg, route oral; details: in vivo, read-out: Drug uptake
[21] = Solubility of the compound; type: physicochemical

SMILES | IC50 [1] [nM] | IC50 [2] [nM] | other results
CNc1nc2oc(-c3ccccc3)nc2c2c1ncn2C | 390 |  | 
CNc1nc2c(nc(-c3ccccc3)n2C)c2c1ncn2C | 446 |  | 
CNc1nc2[nH]c(-c3cccc(F)c3)cc2c2c1ncn2C | 153 |  | 
CNc1nc2sc(-c3ccccc3)nc2c2c1ncn2C | 310 |  | 
CNc1nc2[nH]c(-c3ccccc3F)cc2c2c1ncn2C | 931 |  | 
CNc1nc2[nH]c(-c3cccc(CNC(=O)CO)c3)cc2c2c1ncn2C | 478 |  | 
CNc1nc2[nH]c(-c3cccc(OC)c3)cc2c2c1ncn2C | 320 | 8 | 
CNc1nc2[nH]c(-c3ccccc3)cc2c2c1ncn2C | 800 |  | 
CNc1nc2[nH]c(-c3cccc(CN)c3)cc2c2c1ncn2C | 340 |  | 
CNc1nc2[nH]c(-c3ccc(F)cc3)cc2c2c1ncn2C | 538 | 43 | IC50 [3]: 1730 nM
CNc1nc2[nH]c(-c3cccc(CNC(=O)CCOC)c3)cc2c2c1ncn2C | 370 | 12 | MRT [4]: 14.7 h; concentration [5]: 900 nM; IC50 [6]: 8000 nM; half-life [7]: 11 h; AUC [8]: 71.7 µM·h; Activity [9]: Dose-dependent effect; IC50 [3]: 2620 nM; clearance [10]: 1.8 mL/min/kg; MRT [11]: 2.1 h; bioavailability [12]: 31%; Activity [13]: Active; AUC [14]: 46.9 µM·h; solubility [15]: 1820 µg/mL (≈ 4.65 mM); half-life [16]: 4.8 h; Activity [17]: 85%; concentration [18]: 17000 nM; Vd [19]: 0.2 L/kg; concentration [20]: 3000 nM
CNc1nc2[nH]c(-c3cccc(CNC(=O)CCC(N)=O)c3)cc2c2c1ncn2C | 1000 | 22 | 
CNc1nc2[nH]c(-c3cccc(CNC(C)=O)c3)cc2c2c1ncn2C | 372 | 14 | IC50 [3]: 633 nM
CNc1nc2[nH]c(-c3cccc(CNC(=O)CN(C)C)c3)cc2c2c1ncn2C | 2000 | 79 | 
CNc1nc2[nH]c(-c3cccc(C#N)c3)cc2c2c1ncn2C | 86 | 7 | solubility [21]: < 5 µg/mL
